Assay results published in patent US11524966B1 (Valo Early Discovery, Inc., priority 2017, dated 2022).

What follows are compounds tested against T1, USP25 (USP25-His6, Boston Biochem E-546) (Homo sapiens, UniProt Q9UHP3) (assay: Ubiquitin-Rhodamine 110 Assay for USP25 Activity, Example A-2). Details: Ubiquitin-Rhodamine 110 assay, Example A-2; read-out: USP25 A-2 IC50 range.
T1 construct: His6; purchased Boston Biochem E-546
T1 sequence (Q9UHP3 1-1055): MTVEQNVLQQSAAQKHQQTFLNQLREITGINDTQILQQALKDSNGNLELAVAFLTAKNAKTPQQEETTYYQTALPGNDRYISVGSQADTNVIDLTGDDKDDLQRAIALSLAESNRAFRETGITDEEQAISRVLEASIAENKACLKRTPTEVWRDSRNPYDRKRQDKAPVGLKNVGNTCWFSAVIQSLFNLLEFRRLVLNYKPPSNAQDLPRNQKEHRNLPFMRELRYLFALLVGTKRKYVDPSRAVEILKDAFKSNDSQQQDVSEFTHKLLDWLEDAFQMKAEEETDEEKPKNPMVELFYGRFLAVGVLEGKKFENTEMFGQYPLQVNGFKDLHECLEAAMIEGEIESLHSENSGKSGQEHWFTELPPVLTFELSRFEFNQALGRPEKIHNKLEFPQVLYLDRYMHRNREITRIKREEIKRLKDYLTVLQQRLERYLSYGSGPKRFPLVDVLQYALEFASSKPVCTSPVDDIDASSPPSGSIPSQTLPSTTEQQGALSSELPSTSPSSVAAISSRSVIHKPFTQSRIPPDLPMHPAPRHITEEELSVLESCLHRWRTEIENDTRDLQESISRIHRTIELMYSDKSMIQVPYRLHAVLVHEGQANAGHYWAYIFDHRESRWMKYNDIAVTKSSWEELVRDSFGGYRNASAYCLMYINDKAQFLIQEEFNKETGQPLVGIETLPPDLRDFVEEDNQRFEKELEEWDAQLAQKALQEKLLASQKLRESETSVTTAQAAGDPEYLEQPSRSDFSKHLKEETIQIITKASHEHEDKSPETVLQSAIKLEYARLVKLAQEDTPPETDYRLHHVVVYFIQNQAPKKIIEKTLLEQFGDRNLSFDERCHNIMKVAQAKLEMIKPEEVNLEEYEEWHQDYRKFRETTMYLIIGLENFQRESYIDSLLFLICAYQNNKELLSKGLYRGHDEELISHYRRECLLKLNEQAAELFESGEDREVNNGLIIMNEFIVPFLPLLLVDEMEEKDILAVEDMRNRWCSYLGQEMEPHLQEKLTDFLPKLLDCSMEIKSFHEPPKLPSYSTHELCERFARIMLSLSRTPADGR
Type: biochemical
Outline: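 75 pM USP25-His6 was preincubated 30 min with compound (10-point 3-fold series, 25 μM–1.3 nM) in pH 8.0 Tris buffer with BME, BGG and Triton X-100. Then 25 nM Ub-Rh110 (<<Km) was added for 45 min at room temperature, stopped with citric acid, fluorescence read at 485/535 nm, IC50 by 4-parameter fit.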

| SMILES | IC50 [µM] |
| --- | --- |
| CO[C@@H]1CN(c2ccc3c(c2F)OC[C@H](NC(=O)c2sc4nc(C)ccc4c2N)C3)C[C@H]1N [Example 91, 3-amino-N-[(3R )-7-[(3R,4R)-3-amino-4-methoxypyrrolidin-1-yl]-8-fluoro-3,4-dihydro-2H-1-benzopyran-3-yl]-6-methylthieno[2,3-b]pyridine-2-carboxamide] | 0.2 to 2 |
| CO[C@H]1CN(c2ccc3c(c2F)OC[C@H](NC(=O)c2sc4nc(C)ccc4c2N)C3)C[C@@H]1N [Example 92, 3-amino-N-[(3R)-7-[(3S,4S)-3-amino-4-methoxypyrrolidin-1-yl]-8-fluoro-3,4-dihydro-2H-1-benzopyran-3-yl]-6-methylthieno[2,3-b]pyridine-2-carboxamide] | 0.2 to 2 |
| CO[C@@H]1CN(c2cc3c(cc2F)C[C@@H](NC(=O)c2sc4nc(C)ccc4c2N)CO3)C[C@H]1N [Example 93, 3-amino-N-[(3R)-7-[(3R,4R)-3-amino-4-methoxypyrrolidin-1-yl]-6-fluoro-3,4-dihydro-2H-1-benzopyran-3-yl]-6-methylthieno[2,3-b]pyridine-2-carboxamide] | 0.2 to 2 |
